Some test systems named below: SK-MEL-28 melanoma; IGROV1 ovarian; HCT-116 colon; OVCAR-5 ovarian; SR leukemia; SNB-19 CNS; M14 melanoma; LOX IMVI melanoma; SW-620 colon; HOP-92 NSCLC.
Test in all cases: growth of human tumour cells (NCI), 48 h

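In this assay, cells in 96-well plates receive the compound at five concentrations for 48 hours. Endpoints are linearly interpolated between the surrounding concentrations. Definition used: TGI = concentration required for complete inhibition of growth.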 Peptide text beside a SMILES is read from it. * marks the point of attachment. OSu = O=C1CCC(=O)N1O*; OBn = c1ccc(CO*)cc1; Bn = c1ccc(C*)cc1

As to `Cc1ccc(Nc2nc(NS(=O)(=O)c3cc(C)c(Cl)cc3S)n[nH]2)cc1`, the TGI in the test with SK-MEL-28 melanoma, with IGROV1 ovarian, with HCT-116 colon, with OVCAR-5 ovarian, in the test on SR leukemia and with SNB-19 CNS was above 100 µM throughout. In addition, the TGI in the test with M14 melanoma, in the test on LOX IMVI melanoma, in the test on SW-620 colon and in the test on HOP-92 NSCLC was above 100 µM in each case.
For the molecule `O=C1/C(=C2\SCC(=O)N2c2ccccc2)SC(=S)N1c1ccccc1`, the TGI in the test on SK-MEL-28 melanoma is above 100 µM; with IGROV1 ovarian it was 52.7 µM; in the test with HCT-116 colon it was above 100 µM; in the test with OVCAR-5 ovarian, above 100 µM; in the test on SR leukemia, 29.6 µM; in the test on SNB-19 CNS it was above 100 µM. For the same molecule, the TGI was above 100 µM in the test with M14 melanoma, above 100 µM with LOX IMVI melanoma, above 100 µM in the test on SW-620 colon and 82.7 µM in the test with HOP-92 NSCLC.
Consider `CC(C)(C)OC(=O)N1C/C=C\C(=O)C2(OCCO2)c2ccccc21`, for which the TGI with SK-MEL-28 melanoma was 49.5 µM; with IGROV1 ovarian, 33.4 µM; with HCT-116 colon, 34.9 µM; with OVCAR-5 ovarian it was above 100 µM; in the test with SR leukemia it was 77.9 µM; with SNB-19 CNS, above 100 µM. Also, the TGI came to 65.1 µM with M14 melanoma, 32.6 µM in the test with LOX IMVI melanoma, 58.7 µM with SW-620 colon and 44.2 µM in the test with HOP-92 NSCLC.
Regarding `Cc1nc2sccn2c1C(=O)OCCOCCOCCOCCOC(=O)c1c(C)nc2sccn12`, the TGI in the test with SK-MEL-28 melanoma, in the test on IGROV1 ovarian, in the test on HCT-116 colon, in the test on OVCAR-5 ovarian, in the test with SR leukemia and in the test with SNB-19 CNS was above 100 µM throughout. Besides, the TGI in the test with M14 melanoma, in the test on LOX IMVI melanoma, in the test with SW-620 colon and in the test with HOP-92 NSCLC was above 100 µM throughout.
For the molecule `CC(C)(C)OC(=O)NCCNC(=O)CN(CC(=O)O)C1CCCCC1N(CC(=O)O)CC(=O)O` (stereo not given), the TGI in the test on SK-MEL-28 melanoma, in the test on IGROV1 ovarian, in the test on HCT-116 colon, in the test with OVCAR-5 ovarian, in the test on SR leukemia and with SNB-19 CNS was above 100 µM throughout. Moreover, the TGI in the test on M14 melanoma, in the test on LOX IMVI melanoma, in the test with SW-620 colon and with HOP-92 NSCLC was above 100 µM in each case.
Take `Cc1ccc(C2(c3ccc(C)c(O)c3C)CCN(C)CC2)c(C)c1O`: the TGI with SK-MEL-28 melanoma, in the test on IGROV1 ovarian, with HCT-116 colon, in the test on OVCAR-5 ovarian, in the test on SR leukemia and in the test on SNB-19 CNS was above 100 µM each time. Further, the TGI with M14 melanoma, with LOX IMVI melanoma, with SW-620 colon and in the test with HOP-92 NSCLC was above 100 µM each time.
As for `CCOC(=O)C1=CN(C(=O)c2ccccc2)CCC1Cc1ccccc1` (stereo not given), the TGI with SK-MEL-28 melanoma was 63.3 µM; in the test with IGROV1 ovarian, above 100 µM; in the test on HCT-116 colon, 84.4 µM; in the test with OVCAR-5 ovarian it was above 100 µM; in the test with SR leukemia, 37.5 µM; in the test on SNB-19 CNS it was above 100 µM. Besides, the TGI with M14 melanoma is 37.1 µM; with LOX IMVI melanoma, 34.4 µM; in the test with SW-620 colon it was above 100 µM; in the test on HOP-92 NSCLC it was 54.5 µM.
As for `CCOC(=O)/C=C(/C(=O)OCC)n1ccc(=O)[nH]c1=O`, the TGI in the test with SK-MEL-28 melanoma was determined as 18.4 µM; in the test with IGROV1 ovarian, 31.1 µM; with HCT-116 colon, 7.14 µM; in the test with OVCAR-5 ovarian it was 14.4 µM; in the test on SR leukemia, 16.8 µM; in the test with SNB-19 CNS it was 29.8 µM. Further, the TGI in the test on M14 melanoma stood at 13.2 µM; in the test on LOX IMVI melanoma, 22.3 µM; in the test with SW-620 colon it was 3.99 µM; in the test on HOP-92 NSCLC, 4.32 µM.
Regarding `Cc1nn(C(=O)c2ccc(Cl)cc2)c2c1C(c1ccco1)SC(N)=N2` (stereo not given), the TGI with SK-MEL-28 melanoma, in the test on IGROV1 ovarian, in the test on HCT-116 colon, with OVCAR-5 ovarian, in the test on SR leukemia and with SNB-19 CNS was above 10 µM in each case. Besides, the TGI in the test with M14 melanoma, with LOX IMVI melanoma, in the test on SW-620 colon and with HOP-92 NSCLC was above 10 µM throughout.
Regarding `C/C(NC(=O)c1ccccc1)=C(/C(=O)c1ccccc1)[C@@H]1OC(C)(C)O[C@@H]1[C@H]1COC(C)(C)O1`, the TGI was above 100 µM in the test with SK-MEL-28 melanoma; 42 µM in the test with IGROV1 ovarian; 52.5 µM in the test on HCT-116 colon; above 100 µM with OVCAR-5 ovarian; 38.5 µM with SR leukemia; above 100 µM in the test with SNB-19 CNS. The TGI with M14 melanoma is above 100 µM; in the test with LOX IMVI melanoma it was 45.5 µM; in the test on SW-620 colon, 55.1 µM; with HOP-92 NSCLC, 86.6 µM.
With `CC(C)CC(NC(=O)C(N)CCC(=O)OCc1ccccc1)C(=O)NC(COCc1ccccc1)C(=O)NC(Cc1ccccc1)C(=O)ON1C(=O)CCC1=O` (stereo not given) (H-E(OBn)LS(Bn)F-OSu; configuration not given here), the TGI with SK-MEL-28 melanoma was 68.6 µM; with IGROV1 ovarian it was 72.6 µM; in the test with HCT-116 colon it was 33.1 µM; in the test on OVCAR-5 ovarian, 66.9 µM; with SR leukemia, 85.4 µM; with SNB-19 CNS, 95.1 µM. Moreover, the TGI was above 100 µM in the test with M14 melanoma, 50.7 µM with LOX IMVI melanoma, above 100 µM with SW-620 colon and 39.8 µM in the test with HOP-92 NSCLC.
In the case of `CCOC(=O)O/N=C1/C(c2c(O)[nH]c3ccccc23)=Nc2ccccc21`, the TGI was 41.8 µM with SK-MEL-28 melanoma; 30.9 µM with IGROV1 ovarian; 13.6 µM in the test with HCT-116 colon; 56.2 µM in the test on OVCAR-5 ovarian; above 100 µM with SR leukemia; 95.1 µM in the test with SNB-19 CNS. The TGI with M14 melanoma was 24.2 µM; in the test with LOX IMVI melanoma, 26.6 µM; in the test on SW-620 colon, above 100 µM; in the test with HOP-92 NSCLC it was above 100 µM.
On to `COc1c(Cl)c(Cl)c(OC)c2c1C(=O)C=CC2=O`, for which the TGI with SK-MEL-28 melanoma was 34.7 µM; in the test on IGROV1 ovarian, 56.9 µM; in the test with HCT-116 colon it was 31.6 µM; with OVCAR-5 ovarian it was above 100 µM; in the test with SR leukemia it was 42.9 µM; in the test on SNB-19 CNS, above 100 µM. For the same molecule, the TGI was 43.3 µM in the test on M14 melanoma, 30.2 µM in the test on LOX IMVI melanoma, 31.2 µM in the test with SW-620 colon and 28.8 µM in the test with HOP-92 NSCLC.
